Data reported in ChEMBL document CHEMBL2146428, “Luminmycins A-C, cryptic natural products from Photorhabdus luminescens identified by heterologous expression in Escherichia coli” (J Nat Prod, 2012).
pIC50: −log10 of the molar value. In brackets after ≈: the same amount, converted by molar mass. Activity calls are given as the source filed them. The calls are words filed in the database; no cut-off is given here.

Key:
Candida albicans = assay: Antifungal activity against Candida albicans after 16 hrs by serial dilution method; type: functional
HCT-116 [1] = assay: Cytotoxicity against human HCT116 cells assessed as cell viability after 5 days by MTT assay relative to control; type: functional, cell-based; conditions: HCT-116, 120 h
HCT-116 [2] = assay: Cytotoxicity against human HCT116 cells assessed as cell viability at 100 ug/mL after 5 days by MTT assay relative to control; type: functional, cell-based

Row | SMILES | Activity (Candida albicans) | pIC50 (HCT-116 [1]) | MIC (Candida albicans) [µg/mL] | Activity (HCT-116 [2])
1 | CCCCCCC/C=C/C=C/C(=O)N[C@H](C(=O)N[C@H]1CCCCNC(=O)/C=C/[C@H](C)NC1=O)[C@@H](C)O [LUMINMYCIN A] | inactive | 7.04 |  | 
2 | CCCCCCC/C=C/C=C/C(=O)N[C@H](C(=O)N[C@H]1C[C@@H](O)CCNC(=O)/C=C/[C@H](C)NC1=O)[C@@H](C)O [GLIDOBACTIN A] |  | 7.48 | 2 (≈ 3.84 µM) | 
3 | CCCCCCC/C=C/C=C/C(=O)N[C@H](C(=O)N[C@@H](CCCCN)C(=O)N[C@@H](C)C(O)CC(=O)O)[C@@H](C)O (stereo partly specified) | inactive |  |  | inactive
